Several values for one entry are separate records, joined by “and”; a condition that tells them apart may be missing. Identical values can stand only once.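 Interpolation was linear, between the two tested concentrations surrounding the appropriate level; five concentrations were tested over 48 hours in 96-well plates. GI50: concentration for 50% inhibition of growth. TGI marks complete inhibition of growth.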

This note sets out measurements from PubChem BioAssay (NCI).

Test systems include XF 498 CNS; KM20L2 colon; RPMI-8226 leukemia; SK-MEL-28 melanoma; SF-268 CNS; A549 NSCLC; A498 renal; NCI-H226 lung; BT-549 breast; MDA-MB-435.
Test in all cases: DTP human tumour cell line panel, 48 h

As usually defined, the TGI is the concentration at which net growth stops. A lower TGI goes with greater sensitivity of the cells. As to `Cc1c(Cl)cccc1N1C(=O)C(Cl)=C(Cl)C1=O`, the TGI in the assay on XF 498 CNS is over 100 µM; in the assay on KM20L2 colon, over 100 µM; with RPMI-8226 leukemia it was over 89.8 µM; in the assay on SK-MEL-28 melanoma, over 100 µM; in the assay on SF-268 CNS, over 100 µM; with A549 NSCLC it was over 100 µM. For the same compound, the TGI in the assay with A498 renal and in the assay on NCI-H226 lung was over 100 µM in each case.
Take `O=C(N/N=C1/C(=O)N(c2ccc(Cl)cc2Cl)C(=O)C(=O)C1c1nc2ccccc2o1)c1ccccc1O` (configuration not stated): the total growth inhibition concentration (TGI) with XF 498 CNS was 75.2 µM; in the assay on KM20L2 colon, over 100 µM; in the assay on RPMI-8226 leukemia, over 100 µM; in the assay on SK-MEL-28 melanoma it was 71 µM; in the assay with SF-268 CNS, over 100 µM; in the assay on A549 NSCLC, over 100 µM. Further, the TGI with A498 renal was 88.2 µM; in the assay with NCI-H226 lung, over 100 µM.
With `COC1C(O)=C2C(=O)O/C(C)=C/C=C/C=C/C=C\CC(c3ccccc3)NC(=O)\C=C/C=C\C=C\C=C\[C@@]2(C)[C@@H]1O` (some centres not stated), the TGI with XF 498 CNS worked out at 0.304 µM; in the assay on BT-549 breast, 0.0201 µM; in the assay on KM20L2 colon, 0.165 µM; in the assay with RPMI-8226 leukemia, 0.0445 µM; with SK-MEL-28 melanoma, 0.0518 µM; with SF-268 CNS, 0.318 µM. Also, the TGI in the assay with A549 NSCLC worked out at 0.0445 µM; with A498 renal, 0.318 µM; in the assay on NCI-H226 lung it was 0.273 µM; with MDA-MB-435, 0.044 µM.
Take `CCOC(=O)C(C)(C)Oc1ccc2c(C)c(-c3ccc(Cl)cc3)c(=O)oc2c1`: the TGI in the assay with XF 498 CNS is 83.9 µM; in the assay on KM20L2 colon it was over 100 µM; in the assay with RPMI-8226 leukemia, over 100 µM; in the assay on SK-MEL-28 melanoma, over 100 µM; with SF-268 CNS it was over 100 µM; with A549 NSCLC it was over 100 µM. For the same compound, the TGI in the assay with A498 renal is over 100 µM; in the assay with NCI-H226 lung, 80.6 µM.
Broadly, the GI50 is the concentration that inhibits growth by half. `N=c1ccn2c(n1)OC1C(O)C(CO)OC12` (configuration not stated): the TGI with XF 498 CNS is over 1000 µM; with BT-549 breast it was over 1000 µM; with KM20L2 colon it was over 562 µM; in the assay with RPMI-8226 leukemia, over 1000 µM; in the assay on SK-MEL-28 melanoma it was over 607 µM; in the assay with SF-268 CNS it was over 619 µM. Further, the TGI in the assay with A549 NSCLC is over 1000 µM; in the assay on A498 renal, over 1000 µM; in the assay on NCI-H226 lung, over 719 µM; in the assay on MDA-MB-435, over 1000 µM. Further, the GI50 is over 100 µM in the assay with BT-549 breast; 3.97 µM with RPMI-8226 leukemia; 6.3 µM and > 36.5 µM in the assay with SK-MEL-28 melanoma; 2.41 µM with SF-268 CNS; 0.337 µM with A549 NSCLC; 66.3 µM with A498 renal. The GI50 in the assay with NCI-H226 lung was 120 µM and > 79 µM; in the assay on MDA-MB-435 it was 2.59 µM.
